Results taken from the OligoGym collection.
Several values for one entry are separate records, joined by “and”; a condition that tells them apart may be missing. Identical values can stand only once. After the bases stand the sugars from the 5' end (letter, count) and the backbone: PS all phosphorothioate, else s phosphorothioate and o phosphodiester by linkage. Methylation of C is not given here. e = 2'-O-(2-methoxyethyl) (MOE); l = locked nucleic acid (LNA); d = 2'-deoxy (DNA)

Experiments:
DGAT2 = conditions: ASO
SNHG14 = conditions: ASO
[1] = Mouse Primary Neuronal Cell, 0.005 µM

Sequence | target mRNA inhibition (SNHG14; Human Neuronal Cell, 7.5 µM) [%] | target mRNA inhibition (SNHG14; Human Neuronal Cell, 0.2 µM) [%] | target mRNA inhibition (SNHG14; Human Neuronal Cell, 1 µM) [%] | also measured
ACTCCCACCTGAGTGCTGCA (sugars e5 d10 e5, PS) | – | – | – | target mRNA inhibition (DGAT2; HepG2, 2.5 µM): 92%; target mRNA inhibition (DGAT2; HepG2, 10 µM): 80%
CAGGGTGACTTTGCCCCATT (sugars e5 d10 e5, PS) | – | – | – | target mRNA inhibition (DGAT2; HepG2, 0.12 µM): 43%
AGGTTGTGTGTCTTCACCAG (sugars e5 d10 e5, PS) | – | – | – | target mRNA inhibition (DGAT2; HepG2, 0.12 µM): 59% and 74%
AGGCATGGAGCTCAGAGACT (sugars e2 d13 e5, PS) | – | – | – | target mRNA inhibition (DGAT2; HepG2, 0.12 µM): 78%
GTTAGGATGCTTAACTTCTG (sugars e5 d10 e5, PS) | – | – | – | target mRNA inhibition (DGAT2; HepG2, 2.5 µM): 51%; target mRNA inhibition (DGAT2; HepG2, 10 µM): 86%
GCCAGTGTAGCCAGGTAAGG (sugars e5 d10 e5, PS) | – | – | – | target mRNA inhibition (DGAT2; HepG2, 0.12 µM): 9%
CAGTGCCCCATCTCCCAGAC (sugars e5 d10 e5, PS) | – | – | – | target mRNA inhibition (DGAT2; HepG2, 0.12 µM): 0%
GTTTTGGGAACTCATGCATT (sugars e5 d10 e5, PS) | – | – | – | target mRNA inhibition (DGAT2; HepG2, 0.12 µM): 50%
CTTTGAGCATCCCCAATCCC (sugars e5 d10 e5, PS) | – | – | – | target mRNA inhibition (DGAT2; HepG2, 2.5 µM): 14%; target mRNA inhibition (DGAT2; HepG2, 10 µM): 75%
CTGTGACCTCCTGCCACCTT (sugars e5 d10 e5, PS) | – | – | – | target mRNA inhibition (DGAT2; HepG2, 0.12 µM): 25%
AAATCTCAACTACCATTTTT (sugars ldllldddddddddddldll, PS) | 45 | – | – | –
TTATAGCCATTCTATCT (sugars l3 d8 l1 d3 l2, PS) | 58 | – | – | –
TCTTTCCATTTATTTCCATT (sugars l2 d13 l1 d1 l3, PS) | 42 | – | – | –
AGATCATTCTCAACAATTA (sugars ldlddldddddddddllll, PS) | 50 | – | – | –
GAAAATCTCAACTACCATT (sugars l4 d10 l1 d1 l3, PS) | 45 | – | – | –
ATATTGATTCAATTCCC (sugars l2 d2 l1 d9 l3, PS) | 75 | – | – | –
AATTATTTATACACCATCAT (sugars lddddldddddddlldldll, PS) | 60 | – | – | –
TATACCTTTCTTTAACCCTT (sugars l2 d4 l1 d11 l2, PS) | 51 | – | – | –
TGCTACCATCATTACCT (sugars l2 d13 l2, PS) | – | 12 | 19 | –
TTATAGCCATTCTATCT (sugars lddlddddddddlldll, PS) | 25 | – | – | –
GCAACATTATTAACCACCT (sugars ldlldlddddddlddldll, PS) | 44 | – | – | –
GCACATTCTTTCTATACC (sugars ldldldddddddddddll, PS) | 61 | – | – | –
TTCTACTATACTTTCCTCT (sugars ldddldddddddldlddll, PS) | 58 | – | – | –

Sequence | target mRNA inhibition (SNHG14; Human Neuronal Cell, 7.5 µM) [%] | target mRNA inhibition (SNHG14; Human Neuronal Cell, 0.2 µM) [%] | target mRNA inhibition (SNHG14; Human Neuronal Cell, 1 µM) [%] | also measured
TTTTAACCAGAGTGGCATC (sugars l4 d13 l2, PS) | 45 | – | – | –
CCCAAATAAGCAAACT (sugars l4 d10 l2, PS) | – | 35 | 43 | –
AAAATCTCAACTACCATTT (sugars llddlldddddddlldlll, PS) | 52 | – | – | –
AAAATTATTTATACACCATC (sugars l1 d2 l2 d9 l6, PS) | 56 | – | – | –
CACCTTAAGTAACATT (sugars l4 d10 l2, PS) | – | 19 | 21 | –
ACAACTTCTATCATAC (sugars l3 d10 l3, PS) | – | 44 | 55 | –
TGACATAACCATATAC (sugars l3 d10 l3, PS) | – | 20 | 30 | –
TTTATTTCCATTTATTTTC (sugars llddlldddddddldllll, PS) | 66 | – | – | –
CAACATTATTAACCACCTTA (sugars ldldldddddddddddldll, PS) | 51 | – | – | –
GCACATTCTTTCTATACC (sugars l1 d4 l1 d10 l2, PS) | 45 | – | – | –
GTCATCTAACTTCTTAC (sugars l3 d11 l3, PS) | – | 45 | 46 | –
GATAATTCCAAATCCC (sugars l2 d10 l4, PS) | – | 16 | 6 | –
CTACATCTCATACTTGC (sugars l2 d13 l2, PS) | – | -11 | -20 | target mRNA inhibition (SNHG14; Human Neuronal Cell, 5 µM): 8%; target mRNA inhibition (SNHG14; [1]): 90.4%
AGATCATTCTCAACAATT (sugars ldldlldddddddlllll, PS) | 32 | – | – | –
GTTCTACTATACTTTCCT (sugars l1 d15 l2, PS) | -8 | – | – | –
TACACTTAATTATACTTCCA (sugars l1 d4 l1 d11 l3, PS) | 53 | – | – | –
TGTTTCCATCTACTATTA (sugars l1 d4 l1 d10 l2, PS) | 60 | – | – | –
ATCTGCTACATATTCTT (sugars l4 d11 l2, PS) | – | 50 | 59 | –
ATTCTTACCGTCTTTA (sugars l4 d10 l2, PS) | – | 49 | 60 | –
GCACATTCTTTCTATAC (sugars l2 d1 l1 d11 l2, PS) | 61 | – | – | –
TTACACTTAATTATACTTCC (sugars l3 d1 l1 d12 l3, PS) | 70 | – | – | –
TACTCTGCAATACACC (sugars l1 d3 l1 d9 l2, PS) | 52 | – | – | –
TTCCTTTCATTAACATTT (sugars l4 d12 l2, PS) | – | 37 | 55 | –

Sequence | target mRNA inhibition (SNHG14; Human Neuronal Cell, 7.5 µM) [%] | target mRNA inhibition (SNHG14; Human Neuronal Cell, 0.2 µM) [%] | target mRNA inhibition (SNHG14; Human Neuronal Cell, 1 µM) [%] | also measured
TCATTTCATATTACTAAC (sugars l4 d12 l2, PS) | – | 13 | 32 | –
GTTCTACTATACTTTCCTC (sugars l1 d14 l1 d1 l2, PS) | 54 | – | – | –
GTTTATACCCTTTCCAAT (sugars l2 d11 l1 d2 l2, PS) | 67 | – | – | –
AAACTCTTGCATCTACT (sugars l2 d13 l2, PS) | – | 19 | 41 | –
ATATTTGTCACCTAAC (sugars l4 d10 l2, PS) | – | 33 | 32 | –
TTTATCAATATCTTCTCA (sugars l1 d2 l1 d10 l4, PS) | 53 | – | – | –
CCTTTCCAATGAATCTA (sugars l2 d11 l4, PS) | – | 53 | 59 | –
TTTATCAATATCTTCTCAC (sugars l1 d4 l1 d9 l4, PS) | 52 | – | – | –
TTTTTTCTTACTATCTTCAA (sugars llddldldddddddldldll, PS) | 60 | – | – | –
CTGTATACACCATCCCA (sugars ldlddddddddddldll, PS) | 62 | – | – | –
GCCAATACCCACAAAC (sugars l3 d10 l3, PS) | – | 11 | 33 | –
TCTTTCCATTTATTTCCAT (sugars l2 d14 l3, PS) | 43 | – | – | –
CTATTTAATTTACACTT (sugars l3 d11 l3, PS) | – | 15 | 13 | –
ATCATTCTCAACAATTAA (sugars l5 d8 l5, PS) | 48 | – | – | –
TTACCAATAGTTACCT (sugars l3 d10 l3, PS) | – | 33 | 48 | –
TTCTACTATACTTTCC (sugars l4 d10 l2, PS) | – | 55 | 69 | –
GCTTTTAACCAGAGTG (sugars l4 d10 l2, PS) | 72 | – | – | –
CAACATTATTAACCACCTT (sugars l1 d14 l4, PS) | 47 | – | – | –
TGAAACTATTACTCCT (sugars l3 d10 l3, PS) | – | 44 | 61 | –
GAACAACTTCTATCAT (sugars l2 d10 l4, PS) | – | 16 | 28 | –
TTCTACTATACTTTCCTCT (sugars ldddddddddddlddldll, PS) | 54 | – | – | –
CCATACAGTATATACA (sugars l4 d10 l2, PS) | – | 31 | 56 | –
ATATTGATTCAATTCCC (sugars ldddlddddddllddll, PS) | 62 | – | – | –

Sequence | target mRNA inhibition (SNHG14; Human Neuronal Cell, 7.5 µM) [%] | target mRNA inhibition (SNHG14; Human Neuronal Cell, 0.2 µM) [%] | target mRNA inhibition (SNHG14; Human Neuronal Cell, 1 µM) [%] | also measured
TTTATACCCTTTCCAA (sugars l2 d10 l4, PS) | – | 55 | 63 | –
GTTTCCATCTACTATTAA (sugars l1 d11 l2 d1 l3, PS) | 52 | – | – | –
TCTTACCAATAGTTACC (sugars l4 d11 l2, PS) | – | 45 | 55 | –
TTTAACCTTGCTTATA (sugars l2 d10 l4, PS) | – | 23 | 25 | –
GCTTTTAACCAGAGTGGC (sugars l1 d14 l3, PS) | 63 | – | – | –
TCCAGCATATTATATA (sugars l4 d10 l2, PS) | – | 24 | 10 | –
CAAGTTTCCTATATTCT (sugars l4 d11 l2, PS) | – | 66 | 70 | –
TCTTTCCATTTATTTCCAT (sugars lddldldddddddldldll, PS) | 37 | – | – | –
AGATCATTCTCAACAATTA (sugars ldddlddddddddlldlll, PS) | 63 | – | – | –
AAAATTATTTATACACCATC (sugars lllllllddddddldlddll, PS) | 49 | – | – | –
ATTTTTTTCTTACTATCTTC (sugars ldlldlldddddddddddll, PS) | 69 | – | – | –
TCAGCTTTTAACCAGAGTGG (sugars l2 d16 l2, PS) | 70 | – | – | –
ACCTACATCTCATACT (sugars l4 d10 l2, PS) | – | 14 | -14 | target mRNA inhibition (SNHG14; Human Neuronal Cell, 5 µM): 33%; target mRNA inhibition (SNHG14; [1]): 93.8%
AGTTCTACTATACTTTCC (sugars l1 d12 l1 d2 l2, PS) | 52 | – | – | –
TCTTACTCTGACTTTCC (sugars l2 d12 l3, PS) | – | 68 | 71 | –
ATCATTCTCAACAATTA (sugars l1 d1 l3 d6 l6, PS) | -24 | – | – | –
TCAGCTTTTAACCAGAGTG (sugars l2 d14 l3, PS) | 76 | – | – | –
TGTTTATACCCTTTCCAA (sugars lddddlddddddldldll, PS) | 47 | – | – | –
AGTTCTACTATACTTTC (sugars l3 d1 l1 d10 l2, PS) | 64 | – | – | –
TCATACTTGCTTTAAT (sugars l4 d10 l2, PS) | – | 13 | 38 | –
TTACACTTAATTATACTTCC (sugars ldldddlddddddddlddll, PS) | 64 | – | – | –
